Results published in patent publication US12428406B2 (PMV Pharmaceuticals, Inc., priority 2019, dated 2025).

Biological target: T1, p53 Y220C (Homo sapiens, UniProt P04637, Y220C)
T1 construct: The recombinant protein was a truncation mutant containing only amino acids 94-312 of p53; made in house; host or cells: E. coli
Assay: In vitro DNA binding activity assay (HTRF / TR-FRET): stabilization of p53 Y220C and increase of its DNA binding activity
Assay type: biochemical
Details: recombinant His-tagged p53 Y220C DNA binding domain (aa 94-312), biotin-labeled consensus DNA, incubated at 27° C. or 29° C. for 60 min
In short: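 Compounds from 4.5 mM DMSO stocks, 3-fold serial dilutions; room-temperature incubations of 15 and 20 min. SC150 = concentration raising DNA binding by 50% over no-compound control.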

T1 sequence (P04637 94-312, change not shown): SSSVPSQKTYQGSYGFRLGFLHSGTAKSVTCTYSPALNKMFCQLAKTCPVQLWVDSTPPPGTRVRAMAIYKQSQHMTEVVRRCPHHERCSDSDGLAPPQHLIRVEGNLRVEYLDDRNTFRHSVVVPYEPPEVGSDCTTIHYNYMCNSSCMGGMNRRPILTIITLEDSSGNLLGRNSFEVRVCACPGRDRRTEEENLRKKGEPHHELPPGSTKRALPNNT

| SC150 (concentration of the compound required to increase the DNA binding activity by 50%) | Compound |
| --- | --- |
| + (+ = 0 μM ≤ SC150 < 0.05 μM) | COc1cc(C(=O)O)ccc1NCC#Cc1cc2c(N[C@@H]3CCN(C(C)C)C[C@@H]3F)cccc2n1CC(F)(F)F [Compound 809A, 4-{[3-(4-{[(3S,4R)-3-fluoro-1-(propan-2-yl)piperidin-4-yl]amino}-1-(2,2,2-trifluoroethyl)-1H-indol-2-yl)prop-2-yn-1-yl]amino}-3-methoxybenzoic acid] |
| + (+ = 0 μM ≤ SC150 < 0.05 μM) | CN(C)[C@H]1CC[C@H](Nc2cccc3c2cc(C#CCNc2ccc(S(N)(=O)=O)cc2OCC#N)n3CC(F)(F)F)CC1 [Compound 123A, 3-(cyanomethoxy)-4-{[3-(4-{[(1R,4R)-4-(dimethylamino)cyclohexyl]amino}-1-(2,2,2-trifluoroethyl)-1H-indol-2-yl)prop-2-yn-1-yl]amino}benzene-1-sulfonamide] |
| ++++ (++++ = 0.2 μM ≤ SC150 < 1 μM) | COc1cc(S(C)(=O)=O)ccc1NCC#Cc1cc2c(NC(=O)N[C@H]3CC[C@@H](N(C)C)CC3)cccc2n1CC(F)(F)F [Compound 10A, 3-(2-{3-[(4-methanesulfonyl-2-methoxyphenyl)amino]prop-1-yn-1-yl}-1-(2,2,2-trifluoroethyl)-1H-indol-4-yl)-1-[(1S,4S)-4-(dimethylamino)cyclohexyl]urea] |
| + (+ = 0 μM ≤ SC150 < 0.05 μM) | CNC(=O)c1ccc(NCC#Cc2cc3c(N[C@H]4CC[C@H](N5CC(S(C)(=O)=O)C5)CC4)cccc3n2CC(F)(F)F)c(OC)c1 [Compound 192A, 3-methoxy-N-methyl-4-{[3-(4-{[(1R,4R)-4-(3-methanesulfonyl-azetidin-1-yl)cyclo-hexyl]amino}-1-(2,2,2-trifluoroethyl)-1H-indol-2-yl)prop-2-yn-1-yl]amino}benzamide] |
| + (+ = 0 μM ≤ SC150 < 0.05 μM) | CNC(=O)c1ccc(NCC#Cc2cc3c(N[C@@H]4CCN(C)C[C@@H]4F)cccc3n2CC(F)(F)F)c(O)c1 [Compound 1058A, 4-{[3-(4-{[(3S,4R)-3-fluoro-1-methylpiperidin-4-yl]amino}-1-(2,2,2-trifluoroethyl)-1H-indol-2-yl)prop-2-yn-1-yl]amino}-3-hydroxy-N-methylbenzamide] |
| + (+ = 0 μM ≤ SC150 < 0.05 μM) | CNC(=O)c1ccc(NCC#Cc2cc3c(N[C@H]4CC[C@H](N5CC6(COC6)C5)CC4)cccc3n2CC(F)(F)F)c(O)c1 [Compound 248A, 3-hydroxy-N-methyl-4-{[3-(4-{[(1R,4R)-4-{2-oxa-6-azaspiro[3.3]heptan-6-yl}cyclo-hexyl]amino}-1-(2,2,2-trifluoroethyl)-1H-indol-2-yl)prop-2-yn-1-yl]amino}benzamide] |
| + (+ = 0 μM ≤ SC150 < 0.05 μM) | CN1CC[C@H](Nc2cccc3c2cc(C#CCNc2ccc(S(C)(=O)=O)cc2O)n3CC(F)(F)F)[C@H](F)C1 [Compound 835A, 2-{[3-(4-{[(3R,4S)-3-fluoro-1-methylpiperidin-4-yl]amino}-1-(2,2,2-trifluoroethyl)-H-indol-2-yl)prop-2-yn-1-yl]amino}-5-methanesulfonylphenol] |
| + (+ = 0 μM ≤ SC150 < 0.05 μM) | CNC(=O)c1ccc(NCC#Cc2cc3c(N[C@H]4CC[C@H](N)CC4)cccc3n2CC(F)(F)F)c(OC)c1 [Compound 24A, 3-methoxy-N-methyl-4-{[3-(4-{[(1R,4R)-4-aminocyclo-hexyl]amino}-1-(2,2,2-trifluoroethyl)-1H-indol-2-yl)prop-2-yn-1-yl]amino}benzamide] |
| + (+ = 0 μM ≤ SC150 < 0.05 μM) | CCN1CCC(Nc2cccc3c2cc(C#CCNc2ccc(C(=O)NC)cc2OC)n3CC(F)(F)F)CC1 [Compound 535A, 4-[(3-{4-[(1-ethylpiperidin-4-yl)amino]-1-(2,2,2-trifluoroethyl)-1H-indol-2-yl}prop-2-yn-1-yl)amino]-3-methoxy-N-methylbenzamide] |
| + (+ = 0 μM ≤ SC150 < 0.05 μM) | CN(C)[C@H]1CC[C@@H](Nc2cccc3c2cc(C#CCNc2ccc(S(C)(=O)=O)cc2OCC(F)(F)F)n3CC(F)(F)F)CC1 [Compound 93A, (1S,4S)-N^4-[2-(3-{[4-methanesulfonyl-2-(2,2,2-trifluoroethoxy)phenyl]amino}prop-1-yn-1-yl)-1-(2,2,2-trifluoro-ethyl)-1H-indol-4-yl]-N^1,N^1-dimethylcyclo-hexane-1,4-diamine] |
| + (+ = 0 μM ≤ SC150 < 0.05 μM) | COc1cc(C(=O)O)c(F)cc1NCC#Cc1cc2c(N[C@H]3CC[C@H](N4CC5(COC5)C4)CC3)cccc2n1CC(F)(F)F [Compound 281A, 2-fluoro-5-methoxy-4-{[3-(4-{[(1R,4R)-4-{2-oxa-6-azaspiro[3.3]heptan-6-yl}cyclohexyl]amino}-1-(2,2,2-trifluoroethyl)-1H-indol-2-yl)prop-2-yn-1-yl]amino}benzoic acid] |
| + (+ = 0 μM ≤ SC150 < 0.05 μM) | COc1cc(S(C)(=O)=O)ccc1NCC#Cc1cc2c(NC3CCN(CC4COC(=O)O4)CC3)cccc2n1CC(F)(F)F (stereo not shown) [Compound 545A, 4-({4-[(2-{3-[(4-methanesulfonyl-2-methoxyphenyl)amino]prop-1-yn-1-yl}-1-(2,2,2-trifluoroethyl)-1H-indol-4-yl)amino]piperidin-1-yl}methyl)-1,3-dioxolan-2-one] |
| + (+ = 0 μM ≤ SC150 < 0.05 μM) | COCCN(CCOC)[C@H]1CC[C@H](Nc2cccc3c2cc(C#CCNc2ccc(S(N)(=O)=O)cc2OCF)n3CC(F)(F)F)CC1 [Compound 166A, 3-(fluoromethoxy)-4-{[3-(4-{[(1R,4R)-4-[bis(2-methoxyethyl)amino]cyclohexyl]amino}-1-(2,2,2-trifluoro-ethyl)-1H-indol-2-yl)prop-2-yn-1-yl]amino} benzene-1-sulfonamide] |
| + (+ = 0 μM ≤ SC150 < 0.05 μM) | CN1CCC(Nc2cccc3c2cc(C#CCNc2ccc(C(=O)N(C)C)s2)n3CC(F)(F)F)CC1 [Compound 525A, N,N-dimethyl-5-((3-(4-((1-methylpiperidin-4-yl)amino)-1-(2,2,2-trifluoroethyl)-1H-indol-2-yl)prop-2-yn-1-yl)amino)thiophene-2-carboxamide] |
| + (+ = 0 μM ≤ SC150 < 0.05 μM) | COc1cc(S(=O)(=O)Nc2cc(C)on2)ccc1NCC#Cc1cc2c(NC3CCOCC3)cccc2n1CC(F)(F)F [Compound 994A, 3-methoxy-N-(5-methyl-1,2-oxazol-3-yl)-4-[(3-{4-[(oxan-4-yl)amino]-1-(2,2,2-trifluoroethyl)-1H-indol-2-yl}prop-2-yn-1-yl)amino]benzene-1-sulfonamide] |
| + (+ = 0 μM ≤ SC150 < 0.05 μM) | CS(=O)(=O)c1ccc(NCC#Cc2cc3c(NC4CCOCC4)cccc3n2CC(F)(F)F)c(O)c1 [Compound 1009A, 5-methanesulfonyl-2-[(3-{4-[(oxan-4-yl)amino]-1-(2,2,2-trifluoroethyl)-1H-indol-2-yl}prop-2-yn-1-yl)amino]phenol] |
| + (+ = 0 μM ≤ SC150 < 0.05 μM) | COc1cc(S(N)(=O)=O)ccc1NCC#Cc1cc2c(NC3CCN(C)CC3)cc(F)cc2n1CC(F)(F)F [Compound 474A, 4-[(3-{6-fluoro-4-[(1-methylpiperidin-4-yl)amino]-1-(2,2,2-trifluoroethyl)-1H-indol-2-yl}prop-2-yn-1-yl)amino]-3-methoxybenzene-1-sulfonamide] |
| + (+ = 0 μM ≤ SC150 < 0.05 μM) | COc1cc(S(C)(=O)=O)ccc1NCC#Cc1cc2c(N[C@H]3CC[C@H](N4CCCC(OC)C4)CC3)cccc2n1CC(F)(F)F (stereo partly drawn) [Compound 348A, 2-{3-[(4-methane-sulfonyl-2-methoxy-phenyl)amino]prop-1-yn-1-yl}-N-[(1R,4R)-4-(3-methoxypiperidin-1-yl)cyclohexyl]-1-(2,2,2-trifluoroethyl)-1H-indol-4-amine] |
| + (+ = 0 μM ≤ SC150 < 0.05 μM) | COc1cc(S(=O)(=O)NC(=O)CN)ccc1NCC#Cc1cc2c(N[C@H]3CC[C@H](N4CC5(CCOCC5)C4)CC3)cccc2n1CC(F)(F)F [Compound 307A, N-((4-((3-(4-(((1R,4R)-4-(7-oxa-2-azaspiro[3.5]nonan-2-yl)cyclohexyl)amino)-1-(2,2,2-trifluoroethyl)-1H-indol-2-yl)prop-2-yn-1-yl)amino)-3-methoxyphenyl)sulfonyl)-2-aminoacetamide] |
| + (+ = 0 μM ≤ SC150 < 0.05 μM) | COc1cc(S(C)(=O)=O)ccc1NCC#Cc1cc2c(NC3CCC4(CC3)OCCO4)cccc2n1CC(F)(F)F [Compound 64A, N-{1,4-dioxaspiro[4.5]decan-8-yl}-2-{3-[(4-methane-sulfonyl-2-methoxy-phenyl)amino]prop-1-yn-1-yl}-1-(2,2,2-trifluoroethyl)-1H-indol-4-amine] |
| + (+ = 0 μM ≤ SC150 < 0.05 μM) | COCCN(C)S(=O)(=O)c1ccc(NCC#Cc2cc3c(NC4CCS(=O)(=O)CC4)cccc3n2CC(F)(F)F)c(OC)c1 [Compound 1046A, 4-[(3-{4-[(1,1-dioxo-1λ^6-thian-4-yl)amino]-1-(2,2,2-trifluoroethyl)-1H-indol-2-yl}prop-2-yn-1-yl)amino]-3-methoxy-N-(2-methoxyethyl)-N-methylbenzene-1-sulfonamide] |

| Compound | SC150 (concentration of the compound required to increase the DNA binding activity by 50%) |
| --- | --- |
| CCNC(=O)c1ccc(NCC#Cc2cc3c(N[C@H]4CC[C@H](N5CC6CC(C5)O6)CC4)cccc3n2CC(F)(F)F)c(OC)c1 [Compound 406A, N-ethyl-3-methoxy-4-{[3-(4-{[(1R,4R)-4-{6-oxa-3-azabicyclo[3.1.1]heptan-3-yl}cyclohexyl]amino}-1-(2,2,2-trifluoroethyl)-1H-indol-2-yl)prop-2-yn-1-yl]amino}benzamide] | + (+ = 0 μM ≤ SC150 < 0.05 μM) |
